This note sets out measurements from US11787812B2, “Substituted pyrazolo[4,3-d]pyrimidines and imidazo[5,1 -f][1,2,4]triazines as androgen receptor and phosphodiesterase dual inhibitors” (ILDONG PHARMACEUTICAL CO., LTD., priority 2020, dated 2023).

Read-outs that look alike come from different tables or passages of the source.

In one assay the target is human PDE-5A1 (Homo sapiens (Human), UniProt O76074). As to the kind of experiment: Human PDE-5A1 inhibition assay (fluorescence polarization, FAM-cGMP). It is filed as biochemical. As to conditions: human PDE5A1, 100 nM FAM-cGMP, 60 minutes room temperature. From the text: This example illustrates the in vitro inhibition of human PDE-5A1 by exemplary compounds of this disclosure (e.g., as described herein).
Sildenafil citrate (Catalog no. LKT-S3313, Axxora, San Diego, CA), Vardenafil hydrochloride trihydrate (Catalog no. SML2103, Sigma-Aldrich, St. Louis, MO), PDE Assay Buffer (Catalog no. 60393, BPS bioscience, San Diego, CA), PDE Binding Agent (Catalog no. 60390, BPS bioscience, San Diego, CA) and PDE Binding Agent Diluent (cGMP, Catalog no. 60392, BPS bioscience, San Diego, CA) were used for assays. Test compounds were supplied by Ildong Pharmaceuticals Co., Ltd.
The serial dilution of the compounds was first performed in 100% DMSO with the highest concentration at 1 mM and 0.1 mM. Each intermediate compound dilution (in 100% DMSO) will then get directly diluted 10× fold into assay buffer for 10% DMSO and 5 μL of the dilution was added to a 50 μL reaction so that the final concentration of DMSO is 1% in all reactions.
The enzymatic reactions were conducted at room temperature for 60 minutes in a 50 μL mixture containing PDE assay buffer, 100 nM FAM-cGMP, a PDE enzyme (Table 2) and the test compounds.
After enzymatic reaction, 100 μL of a binding solution (1:100 dilution of the binding agent with the binding agent diluent) was added to each reaction and the reaction was performed at room temperature for 60 minutes.
Fluorescence intensity was measured at excitation of 485 nm and an emission of 528 nm using a Tecan Infinite M1000 microplate reader.
PDE activity assays were performed in duplicate at each concentration. Fluorescence intensity is converted to fluorescence polarization using the Tecan Magellan6 software. The fluorescence polarization (FPt) in absence of the compound in each data set was defined as 100% activity. In the absence of PDE and the compound, the value fluorescent polarization (FPb) in each data set was defined as 0% activity. The percent activity in the presence of compound was calculated according to Equation 1:
[formula] where FP=the fluorescence polarization in the presence of the compound.
The values of % activity versus a series of compound concentrations were then plotted using non-linear regression analysis of Sigmoidal dose-response curve generated with Equation 2:
[formula] where Y=percent activity, B=minimum percent activity, T=maximum percent activity, X=logarithm of compound, and Hill Slope=slope factor or Hill coefficient. The IC50 value was determined by the concentration causing a half-maximal percent activity. Results
For orientation: In fluorescence polarisation assays a small probe gives low polarisation when free and higher when bound to something large.

The target of a further assay is androgen receptor (AR) (Homo sapiens (Human), UniProt P10275). As to the kind of experiment: Androgen receptor (AR) reporter assay, antagonist screen activated by R1881. It is filed as cell-based. As to conditions: AR-UAS-bla GripTite 293 cells, antagonist mode, R1881 at EC80. As to the method: The protocols and results of this Example were carried out and obtained by Thermofisher Scientific.
Sequence of androgen receptor (AR) (P10275 other isoform, or with tags, fused parts or gaps): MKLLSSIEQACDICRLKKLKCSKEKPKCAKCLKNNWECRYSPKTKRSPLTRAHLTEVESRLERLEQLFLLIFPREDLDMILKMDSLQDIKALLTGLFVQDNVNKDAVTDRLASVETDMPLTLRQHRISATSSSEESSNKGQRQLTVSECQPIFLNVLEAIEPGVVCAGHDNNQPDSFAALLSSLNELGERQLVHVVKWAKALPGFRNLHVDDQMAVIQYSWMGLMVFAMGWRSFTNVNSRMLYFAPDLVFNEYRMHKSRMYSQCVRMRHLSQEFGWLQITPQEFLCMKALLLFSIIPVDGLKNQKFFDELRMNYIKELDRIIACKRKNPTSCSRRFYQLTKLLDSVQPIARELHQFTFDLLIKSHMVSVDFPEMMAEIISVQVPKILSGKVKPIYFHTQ
Test compounds were received at 1000× (or greater) of the desired starting concentration in 100% DMSO. If compounds were supplied at greater that 1000× concentration, an initial dilution is made in 100% DMSO to bring the compounds to 1000× concentration. The 1000× test compounds were serially diluted (10 point ½-log increments) in 100% DMSO.
The Substrate Loading Solution consists of three Life Technologies reagents: Solution A (10 mM LiveBLAzer™-FRET B/G Substrate), Solution B and Solution C.
Androgen Receptor (AR)—Antagonist Screen, Activated by R1881
AR-UAS-bla GripTite™ 293 cells were thawed and resuspended in Assay Media (DMEM phenol red free, 2% CD-treated FBS, 0.1 mM NEAA, 1 mM Sodium Pyruvate, 100 U/mL/100 μg/mL Pen/Strep) to a concentration of 312,500 cells/mL. 4 μL of a 10× serial dilution of Cyproterone Acetate (control antagonist starting concentration, 3,160 nM) or compounds are added to appropriate wells of a Poly-D-Lysine assay plate. 32 μL of cell suspension was added to the wells and pre-incubated at 37° C./5% CO2 in a humidified incubator with compounds and control antagonist titration for 30 minutes. 4 μL of 10× control agonist R1881 at the pre-determined EC80 concentration was added to wells containing the control antagonist or compounds. The plate was incubated for 16-24 hours at 37° C./5% CO2 in a humidified incubator. 8 μL of 1 μM Substrate Loading Solution is added to each well and the plate was incubated for 2 hours at room temperature. The plate was read on a fluorescence plate reader (Tecan Safire^2).
(In general: Reporter assays use an easily measured gene product as a stand-in for the process of interest.)

A further assay deals with Human androgen receptors (Homo sapiens (Human), UniProt P10275, T878A). As to the kind of experiment: Androgen receptor (AR) radioligand binding assay. The procedure:
Methods employed in this study have been adapted from the following literature procedure.
Human androgen receptors obtained from human LNCaP cells are used in modified HEPES buffer pH 7.4. […] Non-specific binding is estimated in the presence of 1 μM testosterone. […] (See, e.g., Traish, A. M et al., Binding of 7α, 17α-dimethyl-19-nortestosterone (Mibolerone) to androgen and progesterone receptors in human and animal tissues. Endocrinology. 118(4): 1327-1333, 1986).
Compounds are screened at 10 μM.
Where presented, IC50 values were determined by a non-linear, least squares regression analysis using MathIQ™ (ID Business Solutions Ltd., UK).

[1] abbreviates: receptors from human LNCaP cells, 0.5 nM [3H]Methyltrienolone, 20 hours at 4° C., read-out: AR IC50.

Sequence of Human androgen receptors (P10275 whole entry T878A): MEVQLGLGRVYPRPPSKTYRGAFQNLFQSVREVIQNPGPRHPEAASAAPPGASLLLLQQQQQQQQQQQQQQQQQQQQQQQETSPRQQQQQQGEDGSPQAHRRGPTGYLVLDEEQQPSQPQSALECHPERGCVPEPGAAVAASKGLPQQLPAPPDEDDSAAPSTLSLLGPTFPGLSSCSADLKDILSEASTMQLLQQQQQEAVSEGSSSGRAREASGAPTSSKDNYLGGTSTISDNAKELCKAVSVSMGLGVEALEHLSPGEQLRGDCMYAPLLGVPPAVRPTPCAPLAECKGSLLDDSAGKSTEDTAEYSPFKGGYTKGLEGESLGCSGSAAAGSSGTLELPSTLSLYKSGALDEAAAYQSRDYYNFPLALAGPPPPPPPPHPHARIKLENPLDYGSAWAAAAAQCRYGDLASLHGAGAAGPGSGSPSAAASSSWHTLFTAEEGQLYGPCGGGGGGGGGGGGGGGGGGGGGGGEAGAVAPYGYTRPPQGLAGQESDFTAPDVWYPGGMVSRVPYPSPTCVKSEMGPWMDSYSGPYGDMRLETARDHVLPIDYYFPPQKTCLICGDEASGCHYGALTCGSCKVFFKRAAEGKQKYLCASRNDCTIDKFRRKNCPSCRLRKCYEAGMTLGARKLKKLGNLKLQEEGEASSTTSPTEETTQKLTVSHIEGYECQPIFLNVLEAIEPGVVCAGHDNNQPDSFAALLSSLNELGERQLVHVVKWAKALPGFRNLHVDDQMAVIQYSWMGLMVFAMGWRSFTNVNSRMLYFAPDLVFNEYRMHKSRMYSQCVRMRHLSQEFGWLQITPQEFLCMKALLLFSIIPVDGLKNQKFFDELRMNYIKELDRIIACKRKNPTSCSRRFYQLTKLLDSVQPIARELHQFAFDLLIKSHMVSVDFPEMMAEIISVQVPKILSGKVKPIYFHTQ

For the compound `CCCc1nc(C)c2c(=O)[nH]c(-c3cc(S(=O)(=O)NC4CN(c5ccc(C#N)c(C(F)(F)F)c5)C4)ccc3OCC)nn12` [Compound 29, N-(1-(4-cyano-3-(trifluoromethyl)phenyl)azetidin-3-yl)-4-ethoxy-3-(5-methyl-4-oxo-7-propyl-3,4-dihydroimidazo[5,1-f][1,2,4]triazin-2-yl)benzenesulfonamide], the concentration for half-maximal inhibition (IC50) (in general, the concentration needed to halve the response being measured) on human PDE-5A1 is at most 10 nM; on androgen receptor (AR), 0.5 to 1 µM; at Human androgen receptors it was 0.05 to 0.2 µM.

For `CCCc1nc(C)c2c(=O)[nH]c(-c3cc(N4C(=S)N(c5cnc(C#N)c(C(F)(F)F)c5)C(=O)C4(C)C)ccc3OCC)nn12` [Compound 20, 5-(3-(4-ethoxy-3-(5-methyl-4-oxo-7-propyl-3,4-dihydroimidazo[5,1-f][1,2,4]triazin-2-yl)phenyl)-4,4-dimethyl-5-oxo-2-thioxoimidazolidin-1-yl)-3-(trifluoromethyl)picolinonitrile], the figures for the IC50 against human PDE-5A1, on androgen receptor (AR) and on Human androgen receptors (read-out: AR IC50) were at most 10 nM, at most 0.5 µM and 0.05 to 0.2 µM, respectively.

`CCCc1nc(C)c2c(=O)[nH]c(-c3cc(S(=O)(=O)NC4CCN(c5ccc(C#N)c(C(F)(F)F)c5)C4)ccc3OCC)nn12` (stereo not drawn) [Compound 31, N-(1-(4-cyano-3-(trifluoromethyl)phenyl)pyrrolidin-3-yl)-4-ethoxy-3-(5-methyl-4-oxo-7-propyl-3,4-dihydroimidazo[5,1-f][1,2,4]triazin-2-yl)benzenesulfonamide]: the IC50 was at most 10 nM on human PDE-5A1, 0.5 to 1 µM against androgen receptor (AR) and 0.05 to 0.2 µM at Human androgen receptors.

For `CCCc1nc(C)c2c(=O)[nH]c(-c3cc(N4C(=S)N(c5ccc(C#N)c(C(F)(F)F)c5F)C(=O)C45CCC5)ccc3OCC)nn12` [Compound 48, 4-(5-(4-ethoxy-3-(5-methyl-4-oxo-7-propyl-3,4-dihydroimidazo[5,1-f][1,2,4]triazin-2-yl)phenyl)-8-oxo-6-thioxo-5,7-diazaspiro[3.4]octan-7-yl)-3-fluoro-2-(trifluoromethyl)benzonitrile], the concentration for half-maximal inhibition (IC50) at human PDE-5A1 was at most 10 nM; at androgen receptor (AR) it was at most 0.5 µM; on Human androgen receptors (setting [1]) it was under 0.05 µM.

Turning to `CCCc1nc(C)c2c(=O)[nH]c(-c3cc(N4C(=S)N(c5ccc(C#N)c(C(F)(F)F)c5)C(=O)C4(C)C)ccc3OCC)nn12` [Compound 18, 4-(3-(4-ethoxy-3-(5-methyl-4-oxo-7-propyl-3,4-dihydroimidazo[5,1-f][1,2,4]triazin-2-yl)phenyl)-4,4-dimethyl-5-oxo-2-thioxoimidazolidin-1-yl)-2-(trifluoromethyl)benzonitrile], the 50% inhibitory concentration (IC50) on human PDE-5A1 was at most 10 nM; against androgen receptor (AR) it was at most 0.5 µM; on Human androgen receptors (setting [1]), under 0.05 µM.

Take `CCCc1nn(C)c2c(=O)[nH]c(-c3cc(N4C(=S)N(c5cnc(C#N)c(C(F)(F)F)c5)C(=O)C45CCC5)ccc3OCC)nc12` [Compound 23, 5-(5-(4-ethoxy-3-(1-methyl-7-oxo-3-propyl-6,7-dihydro-1H-pyrazolo[4,3-d]pyrimidin-5-yl)phenyl)-8-oxo-6-thioxo-5,7-diazaspiro[3.4]octan-7-yl)-3-(trifluoromethyl)picolinonitrile]: the half-maximal inhibitory concentration (IC50) against human PDE-5A1 was over 100 nM; at androgen receptor (AR), at most 0.5 µM; at Human androgen receptors (setting [1]) it was over 0.2 µM.

In the case of `CCCc1nc(C)c2c(=O)[nH]c(-c3cc(N4C(=S)N(c5ccc(C#N)c(C(F)(F)F)c5F)C(=O)C45CCCC5)ccc3OCC)nn12` [Compound 50, 4-(1-(4-ethoxy-3-(5-methyl-4-oxo-7-propyl-3,4-dihydroimidazo[5,1-f][1,2,4]triazin-2-yl)phenyl)-4-oxo-2-thioxo-1,3-diazaspiro[4.4]nonan-3-yl)-3-fluoro-2-(trifluoromethyl)benzonitrile], the figures for the IC50 against human PDE-5A1, against androgen receptor (AR) and at Human androgen receptors (setting [1]) were at most 10 nM, at most 0.5 µM and under 0.05 µM, respectively.

Regarding `CCCc1nn(C)c2c(=O)[nH]c(-c3cc(N4C(=S)N(c5ccc(C#N)c(C(F)(F)F)c5)C(=O)C4(C)C)ccc3OCC)nc12` [Compound 13, 4-(3-(4-ethoxy-3-(1-methyl-7-oxo-3-propyl-6,7-dihydro-1H-pyrazolo[4,3-d]pyrimidin-5-yl)phenyl)-4,4-dimethyl-5-oxo-2-thioxoimidazolidin-1-yl)-2-(Influoromethyl)benzonilrile], the results for the IC50 against human PDE-5A1, at androgen receptor (AR) and on Human androgen receptors (setting [1]) were over 100 nM, 0.5 to 1 µM and over 0.2 µM, respectively.

As for `CCCc1nc(C)c2c(=O)[nH]c(-c3cc(S(=O)(=O)NC4CCN(c5ccc(C#N)c(C(F)(F)F)c5)C4=O)ccc3OCC)nn12` (stereo not drawn) [Compound 32, N-(1-(4-cyano-3-(trifluoromethyl)phenyl)-2-oxopyrrolidin-3-yl)-4-ethoxy-3-(5-methyl-4-oxo-7-propyl-3,4-dihydroimidazo[5,1-f][1,2,4]triazin-2-yl)benzenesulfonamide], the figures for the IC50 against human PDE-5A1, against androgen receptor (AR) and at Human androgen receptors (setting [1]) were at most 10 nM, over 0.1 µM and over 0.2 µM, respectively.

For the compound `CCCc1nn(C)c2c(=O)[nH]c(-c3cc(N4C(=S)N(c5ccc(C#N)c(C(F)(F)F)c5)C(=O)C45CCC5)ccc3OCC)nc12` [Compound 21, 4-(5-(4-ethoxy-3-(1-methyl-7-oxo-3-propyl-6,7-dihydro-1H-pyrazolo[4,3-d]pyrimidin-5-yl)phenyl)-8-oxo-6-thioxo-5,7-diazaspiro[3.4]octan-7-yl)-2-(trifluoromethyl)benzonitrile], the IC50 against human PDE-5A1 is over 100 nM; against androgen receptor (AR), at most 0.5 µM; at Human androgen receptors (setting [1]), over 0.2 µM.

Consider `CCCc1nc(C)c2c(=O)[nH]c(-c3cc(S(=O)(=O)NC4CCN(c5ccc(C#N)c(C(F)(F)F)c5)CC4)ccc3OCC)nn12` [Compound 30, N-(1-(4-cyano-3-(trifluoromethyl)phenyl)piperidin-4-yl)-4-ethoxy-3-(5-methyl-4-oxo-7-propyl-3,4-dihydroimidazo[5,1-f][1,2,4]triazin-2-yl)benzenesulfonamide], for which the values for the IC50 against human PDE-5A1, at androgen receptor (AR) and on Human androgen receptors (setting [1]) were at most 10 nM, at most 0.5 µM and under 0.05 µM, respectively.

As to `CCCc1nc(C)c2c(=O)[nH]c(-c3cc(N4C(=S)N(c5ccc(C#N)c(C(F)(F)F)c5)C(=O)C45CCC5)ccc3OCC)nn12` [Compound 22, 4-(5-(4-ethoxy-3-(5-methyl-4-oxo-7-propyl-3,4-dihydroimidazo[5,1-f][1,2,4]triazin-2-yl)phenyl)-8-oxo-6-thioxo-5,7-diazaspiro[3.4]octan-7-yl)-2-(trifluoromethyl)benzonitrile], the IC50 at human PDE-5A1 is at most 10 nM; against androgen receptor (AR), at most 0.5 µM; on Human androgen receptors, 0.05 to 0.2 µM.
